Legend:
[1] = target: T1, Peroxisome proliferator-activated receptor gamma (Homo sapiens, UniProt P37231); format: functional
T1 sequence (P37231 whole entry): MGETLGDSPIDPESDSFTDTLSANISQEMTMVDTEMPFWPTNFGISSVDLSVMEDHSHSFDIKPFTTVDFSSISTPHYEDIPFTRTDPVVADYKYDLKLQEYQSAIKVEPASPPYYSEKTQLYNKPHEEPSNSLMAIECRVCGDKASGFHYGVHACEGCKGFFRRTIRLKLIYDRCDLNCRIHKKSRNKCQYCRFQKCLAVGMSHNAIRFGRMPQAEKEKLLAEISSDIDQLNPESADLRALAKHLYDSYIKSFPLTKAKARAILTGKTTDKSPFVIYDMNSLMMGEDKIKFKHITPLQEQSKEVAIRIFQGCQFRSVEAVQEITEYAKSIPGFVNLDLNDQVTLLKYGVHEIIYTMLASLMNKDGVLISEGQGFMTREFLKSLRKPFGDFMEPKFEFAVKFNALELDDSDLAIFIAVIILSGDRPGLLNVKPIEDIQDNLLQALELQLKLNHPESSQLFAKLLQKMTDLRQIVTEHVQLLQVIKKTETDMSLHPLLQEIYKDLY

[2] = target: T2, Progesterone receptor (Homo sapiens, UniProt P06401)
T2 sequence (P06401 whole entry): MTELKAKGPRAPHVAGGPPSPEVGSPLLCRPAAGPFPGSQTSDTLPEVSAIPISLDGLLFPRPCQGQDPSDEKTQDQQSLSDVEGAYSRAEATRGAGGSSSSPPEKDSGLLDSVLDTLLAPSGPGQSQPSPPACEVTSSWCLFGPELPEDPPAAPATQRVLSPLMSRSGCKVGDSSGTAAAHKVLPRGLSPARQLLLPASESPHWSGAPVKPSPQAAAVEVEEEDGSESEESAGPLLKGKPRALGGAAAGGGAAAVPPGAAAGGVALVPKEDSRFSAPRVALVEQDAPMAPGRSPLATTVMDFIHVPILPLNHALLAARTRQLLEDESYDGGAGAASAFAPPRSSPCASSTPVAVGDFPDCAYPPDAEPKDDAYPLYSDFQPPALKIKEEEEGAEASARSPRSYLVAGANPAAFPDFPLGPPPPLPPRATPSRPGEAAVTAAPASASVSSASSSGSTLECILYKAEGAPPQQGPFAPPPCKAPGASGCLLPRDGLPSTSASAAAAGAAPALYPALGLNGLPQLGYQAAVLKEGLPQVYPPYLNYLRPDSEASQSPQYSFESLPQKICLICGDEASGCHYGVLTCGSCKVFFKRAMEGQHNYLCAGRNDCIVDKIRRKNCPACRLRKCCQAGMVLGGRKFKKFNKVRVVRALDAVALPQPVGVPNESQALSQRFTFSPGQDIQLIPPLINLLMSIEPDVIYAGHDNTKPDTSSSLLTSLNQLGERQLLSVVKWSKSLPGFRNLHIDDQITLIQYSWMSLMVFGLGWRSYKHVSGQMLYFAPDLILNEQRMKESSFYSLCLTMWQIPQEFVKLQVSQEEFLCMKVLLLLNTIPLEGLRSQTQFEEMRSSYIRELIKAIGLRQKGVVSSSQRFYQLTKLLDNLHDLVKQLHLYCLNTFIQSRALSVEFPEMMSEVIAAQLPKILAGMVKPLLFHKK

[3] = target: Voltage-dependent N-type calcium channel subunit alpha-1B (Rattus norvegicus, UniProt Q02294); format: functional
Chain of Voltage-dependent N-type calcium channel subunit alpha-1B (Q02294 whole entry): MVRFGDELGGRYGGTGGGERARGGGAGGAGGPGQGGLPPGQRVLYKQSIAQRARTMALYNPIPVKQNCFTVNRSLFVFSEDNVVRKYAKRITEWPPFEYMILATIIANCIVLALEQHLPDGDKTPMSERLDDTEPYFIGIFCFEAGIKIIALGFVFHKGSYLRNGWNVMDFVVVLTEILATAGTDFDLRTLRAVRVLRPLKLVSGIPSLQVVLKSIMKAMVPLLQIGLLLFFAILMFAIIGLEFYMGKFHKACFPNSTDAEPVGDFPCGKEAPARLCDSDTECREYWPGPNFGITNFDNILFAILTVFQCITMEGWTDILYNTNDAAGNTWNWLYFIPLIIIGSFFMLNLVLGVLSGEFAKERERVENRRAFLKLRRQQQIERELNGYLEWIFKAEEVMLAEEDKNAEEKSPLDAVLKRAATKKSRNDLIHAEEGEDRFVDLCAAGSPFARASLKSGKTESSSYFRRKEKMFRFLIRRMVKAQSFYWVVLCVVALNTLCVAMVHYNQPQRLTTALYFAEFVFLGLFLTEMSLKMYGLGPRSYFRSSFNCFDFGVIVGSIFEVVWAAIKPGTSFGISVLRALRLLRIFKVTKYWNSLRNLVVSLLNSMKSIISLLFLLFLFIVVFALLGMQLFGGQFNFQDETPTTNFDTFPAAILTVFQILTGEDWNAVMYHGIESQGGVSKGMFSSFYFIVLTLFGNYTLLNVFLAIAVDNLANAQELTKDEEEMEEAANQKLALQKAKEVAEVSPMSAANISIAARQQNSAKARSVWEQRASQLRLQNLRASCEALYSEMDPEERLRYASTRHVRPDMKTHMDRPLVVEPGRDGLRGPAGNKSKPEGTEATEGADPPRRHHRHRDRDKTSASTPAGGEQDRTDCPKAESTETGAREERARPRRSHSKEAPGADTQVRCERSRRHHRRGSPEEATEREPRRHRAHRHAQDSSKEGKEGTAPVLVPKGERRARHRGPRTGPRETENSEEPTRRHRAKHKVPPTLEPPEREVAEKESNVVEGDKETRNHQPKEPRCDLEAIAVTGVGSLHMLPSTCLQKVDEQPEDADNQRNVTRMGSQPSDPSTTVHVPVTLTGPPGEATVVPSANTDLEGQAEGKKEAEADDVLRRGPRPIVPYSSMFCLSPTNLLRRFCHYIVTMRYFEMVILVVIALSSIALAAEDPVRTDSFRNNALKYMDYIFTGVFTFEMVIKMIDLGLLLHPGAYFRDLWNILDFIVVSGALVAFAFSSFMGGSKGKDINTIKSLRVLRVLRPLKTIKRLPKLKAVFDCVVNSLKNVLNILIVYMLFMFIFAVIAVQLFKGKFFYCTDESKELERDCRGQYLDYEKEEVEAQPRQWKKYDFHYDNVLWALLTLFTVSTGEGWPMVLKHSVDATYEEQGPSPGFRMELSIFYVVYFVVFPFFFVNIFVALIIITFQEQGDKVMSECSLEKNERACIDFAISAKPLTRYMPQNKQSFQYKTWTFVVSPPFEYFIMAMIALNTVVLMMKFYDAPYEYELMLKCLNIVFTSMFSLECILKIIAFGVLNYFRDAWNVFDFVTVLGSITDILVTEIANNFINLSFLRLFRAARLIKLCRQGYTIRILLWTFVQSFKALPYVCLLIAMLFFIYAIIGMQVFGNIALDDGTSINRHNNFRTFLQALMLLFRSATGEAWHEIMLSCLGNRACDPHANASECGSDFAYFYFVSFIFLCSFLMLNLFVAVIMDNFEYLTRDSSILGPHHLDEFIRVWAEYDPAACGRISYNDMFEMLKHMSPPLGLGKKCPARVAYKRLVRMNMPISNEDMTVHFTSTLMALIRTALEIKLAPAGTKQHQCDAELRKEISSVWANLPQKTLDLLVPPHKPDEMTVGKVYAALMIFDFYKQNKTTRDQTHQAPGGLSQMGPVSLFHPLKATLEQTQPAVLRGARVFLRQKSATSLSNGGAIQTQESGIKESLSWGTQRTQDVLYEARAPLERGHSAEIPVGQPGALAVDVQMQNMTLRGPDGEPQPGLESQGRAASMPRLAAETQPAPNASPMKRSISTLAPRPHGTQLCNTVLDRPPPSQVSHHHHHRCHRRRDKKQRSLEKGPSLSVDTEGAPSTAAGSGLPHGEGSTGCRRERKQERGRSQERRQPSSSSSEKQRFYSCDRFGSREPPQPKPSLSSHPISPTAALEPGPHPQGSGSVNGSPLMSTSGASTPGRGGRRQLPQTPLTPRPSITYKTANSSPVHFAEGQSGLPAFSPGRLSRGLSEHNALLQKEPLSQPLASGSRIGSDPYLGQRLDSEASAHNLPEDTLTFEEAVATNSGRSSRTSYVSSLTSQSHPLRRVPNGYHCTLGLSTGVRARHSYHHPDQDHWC

[4] = target: Beta-3 adrenergic receptor (Homo sapiens, UniProt P13945)
Chain of Beta-3 adrenergic receptor (P13945 whole entry): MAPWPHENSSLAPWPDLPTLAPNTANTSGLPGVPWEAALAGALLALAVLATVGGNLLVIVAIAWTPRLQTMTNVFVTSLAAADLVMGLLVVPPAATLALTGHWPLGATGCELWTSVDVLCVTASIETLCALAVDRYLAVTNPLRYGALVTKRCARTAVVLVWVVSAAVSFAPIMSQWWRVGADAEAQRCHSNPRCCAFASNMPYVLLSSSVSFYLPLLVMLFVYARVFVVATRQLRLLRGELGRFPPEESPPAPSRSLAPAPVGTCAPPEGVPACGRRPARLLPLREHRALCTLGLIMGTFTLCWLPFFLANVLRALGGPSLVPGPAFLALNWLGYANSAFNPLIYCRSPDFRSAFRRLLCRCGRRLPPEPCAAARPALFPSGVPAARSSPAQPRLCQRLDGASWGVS

[5] = target: T3, Glucocorticoid receptor (Homo sapiens, UniProt P04150); format: functional
T3 sequence (P04150 whole entry): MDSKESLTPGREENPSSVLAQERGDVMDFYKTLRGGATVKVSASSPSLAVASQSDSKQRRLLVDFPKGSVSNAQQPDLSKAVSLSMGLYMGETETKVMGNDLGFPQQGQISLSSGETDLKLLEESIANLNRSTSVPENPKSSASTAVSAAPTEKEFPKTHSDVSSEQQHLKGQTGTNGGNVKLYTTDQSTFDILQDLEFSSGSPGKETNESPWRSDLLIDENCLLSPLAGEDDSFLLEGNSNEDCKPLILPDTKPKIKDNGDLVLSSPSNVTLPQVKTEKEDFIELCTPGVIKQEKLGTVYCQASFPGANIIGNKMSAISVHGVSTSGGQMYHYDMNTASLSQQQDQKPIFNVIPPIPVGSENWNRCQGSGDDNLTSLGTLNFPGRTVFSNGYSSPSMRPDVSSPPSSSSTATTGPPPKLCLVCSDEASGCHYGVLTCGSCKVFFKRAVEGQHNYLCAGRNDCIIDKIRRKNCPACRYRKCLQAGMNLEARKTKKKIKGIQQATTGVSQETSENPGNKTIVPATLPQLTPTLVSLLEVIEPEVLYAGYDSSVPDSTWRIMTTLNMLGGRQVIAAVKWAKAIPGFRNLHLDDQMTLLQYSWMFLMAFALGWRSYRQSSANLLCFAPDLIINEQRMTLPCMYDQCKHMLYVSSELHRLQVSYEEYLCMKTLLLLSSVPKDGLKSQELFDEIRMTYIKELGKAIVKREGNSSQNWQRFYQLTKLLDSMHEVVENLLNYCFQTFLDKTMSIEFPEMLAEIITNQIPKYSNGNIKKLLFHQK

[6] = target: T4, Alpha-1A adrenergic receptor (Homo sapiens, UniProt P35348)
T4 sequence (P35348 whole entry): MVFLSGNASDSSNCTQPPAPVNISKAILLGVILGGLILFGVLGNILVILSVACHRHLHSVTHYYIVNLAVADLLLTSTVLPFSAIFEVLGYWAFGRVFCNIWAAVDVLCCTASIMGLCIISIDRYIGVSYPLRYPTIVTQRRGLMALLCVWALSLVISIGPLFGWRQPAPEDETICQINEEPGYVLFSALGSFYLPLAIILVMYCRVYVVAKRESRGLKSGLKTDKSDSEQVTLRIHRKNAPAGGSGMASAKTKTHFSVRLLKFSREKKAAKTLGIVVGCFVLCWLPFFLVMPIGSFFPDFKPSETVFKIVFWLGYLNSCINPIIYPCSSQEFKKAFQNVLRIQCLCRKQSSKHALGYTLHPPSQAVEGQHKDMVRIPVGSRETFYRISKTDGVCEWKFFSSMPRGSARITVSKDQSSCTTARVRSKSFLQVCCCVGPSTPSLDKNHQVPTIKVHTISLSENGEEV

[7] = target: Mu-type opioid receptor (Homo sapiens, UniProt P35372); assay: biochemical; format: functional
Chain of Mu-type opioid receptor (P35372 whole entry): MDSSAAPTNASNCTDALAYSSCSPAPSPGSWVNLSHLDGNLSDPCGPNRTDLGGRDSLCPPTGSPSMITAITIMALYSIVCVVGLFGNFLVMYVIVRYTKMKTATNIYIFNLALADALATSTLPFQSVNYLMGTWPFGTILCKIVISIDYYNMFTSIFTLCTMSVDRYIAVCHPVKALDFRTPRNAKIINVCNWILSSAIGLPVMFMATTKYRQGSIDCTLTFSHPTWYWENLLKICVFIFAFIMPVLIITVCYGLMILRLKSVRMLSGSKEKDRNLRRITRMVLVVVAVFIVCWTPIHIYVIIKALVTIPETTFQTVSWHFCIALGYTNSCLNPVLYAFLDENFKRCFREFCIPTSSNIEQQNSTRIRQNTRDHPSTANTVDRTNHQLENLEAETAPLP

[8] = target: D(1A) dopamine receptor (Homo sapiens, UniProt P21728)
Chain of D(1A) dopamine receptor (P21728 whole entry): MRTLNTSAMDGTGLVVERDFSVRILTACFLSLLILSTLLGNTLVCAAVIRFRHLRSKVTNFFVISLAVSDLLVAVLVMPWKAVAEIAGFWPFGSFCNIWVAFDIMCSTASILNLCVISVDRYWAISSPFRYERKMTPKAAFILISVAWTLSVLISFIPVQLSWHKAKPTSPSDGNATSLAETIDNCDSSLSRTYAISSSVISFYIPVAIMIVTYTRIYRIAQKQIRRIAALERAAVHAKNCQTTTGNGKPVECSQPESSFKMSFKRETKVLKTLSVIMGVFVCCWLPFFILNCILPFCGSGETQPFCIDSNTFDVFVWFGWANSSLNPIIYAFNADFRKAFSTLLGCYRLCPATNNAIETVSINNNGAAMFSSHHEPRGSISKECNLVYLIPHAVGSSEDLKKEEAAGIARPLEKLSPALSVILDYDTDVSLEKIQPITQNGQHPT
Note: assay procedure not described here.

Row | SMILES | AC50 [1] | AC50 [2] | AC50 [3] | AC50 [4] | AC50 [5] | AC50 [6] | AC50 [7] | AC50 [8]
1 | Cc1c(C(=O)NN2CCCCC2)nn(-c2ccc(Cl)cc2Cl)c1-c1ccc(Cl)cc1 [RIMONABANT] | 17 µM | > 30 µM | > 10 µM | > 30 µM | > 30 µM | 13.7 µM | – | –
2 | c1ccc([C@H]2CN3CCSC3=N2)cc1 [LEVAMISOLE] | > 30 µM | > 30 µM | – | – | > 30 µM | – | > 30 µM | > 30 µM
3 | CN(C)CCC=C1c2ccccc2C(C)(C)c2ccccc21 | > 30 µM | – | – | – | > 30 µM | – | – | –
4 | C[C@H]1CNCCc2ccc(Cl)cc21 [LORCASERIN] | > 30 µM | – | – | – | > 30 µM | – | – | –
5 | N[C@@H]1[C@H]2CN(c3nc4c(cc3F)c(=O)c(C(=O)O)cn4-c3ccc(F)cc3F)C[C@@H]12 [TROVAFLOXACIN] | > 30 µM | – | – | – | > 30 µM | – | – | –
6 | NCC(CC(=O)O)c1ccc(Cl)cc1 (stereo not given) [BACLOFEN] | > 30 µM | > 30 µM | > 10 µM | > 30 µM | > 30 µM | > 10 µM | – | > 10 µM
7 | C[C@@H](O)[C@H]1C(=O)N2C(C(=O)O)=C(S[C@@H]3CN[C@H](C(=O)N(C)C)C3)[C@H](C)[C@H]12 [MEROPENEM] | > 300 µM | – | – | – | > 300 µM | – | – | –
8 | COc1ccc(CC(C)(C)NC[C@H](O)c2cc(O)cc3c2OCC(=O)N3)cc1 [OLODATEROL] | > 30 µM | – | – | – | > 30 µM | – | – | –
9 | CCCN1C[C@H](CSC)C[C@@H]2c3cccc4[nH]cc(c34)C[C@H]21 [PERGOLIDE] | > 30 µM | > 30 µM | > 10 µM | 20.8 µM | > 30 µM | – | – | –
10 | c1cnc(N2CCN(Cc3ccc4c(c3)OCO4)CC2)nc1 [PIRIBEDIL] | > 30 µM | – | – | – | > 30 µM | – | – | –
11 | CC(C)C[C@H]1C(=O)N2CCC[C@H]2[C@]2(O)O[C@](NC(=O)[C@@H]3C=C4c5cccc6[nH]c(Br)c(c56)C[C@H]4N(C)C3)(C(C)C)C(=O)N12 [BROMOCRIPTINE] | > 30 µM | > 30 µM | > 10 µM | 18.9 µM | > 30 µM | – | – | > 10 µM
12 | COCCCN1CCC(NC(=O)c2cc(Cl)c(N)c3c2OCC3)CC1 [PRUCALOPRIDE] | > 30 µM | – | – | – | > 30 µM | – | – | –
13 | O=C1Nc2ccc(Cl)cc2[C@@](C#CC2CC2)(C(F)(F)F)O1 [EFAVIRENZ] | 18 µM | – | – | – | > 30 µM | – | – | –

— ChEMBL document CHEMBL5291721, “A preclinical secondary pharmacology resource illuminates target-adverse drug reaction associations of marketed drugs” (Nat Commun, 2023)
